Assay results from patent publication US9284333B2, “Fused pyrroledicarboxamides and their use as pharmaceuticals” (SANOFI, priority 2012, dated 2016).

The compounds below were run against Human TASK-1 channels (Homo sapiens (Human), UniProt O14649) (assay: Determination of the activity on the TASK-1 channel in Xenopus oocytes (two-microelectrode voltage clamp)). Conditions: compound concentration 5 μM.
Format: cell-based
How it was run: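 Current during 500 ms pulses to 40 mV from a −90 mV hold was recorded in oocytes expressing human TASK-1 for two days after cRNA injection. Compounds were added cumulatively to the ND96 bath (pH 7.4, room temperature). IC50 came from dose-response fitting of inhibition relative to pre-compound current.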

Chain of Human TASK-1 channels (O14649 whole entry): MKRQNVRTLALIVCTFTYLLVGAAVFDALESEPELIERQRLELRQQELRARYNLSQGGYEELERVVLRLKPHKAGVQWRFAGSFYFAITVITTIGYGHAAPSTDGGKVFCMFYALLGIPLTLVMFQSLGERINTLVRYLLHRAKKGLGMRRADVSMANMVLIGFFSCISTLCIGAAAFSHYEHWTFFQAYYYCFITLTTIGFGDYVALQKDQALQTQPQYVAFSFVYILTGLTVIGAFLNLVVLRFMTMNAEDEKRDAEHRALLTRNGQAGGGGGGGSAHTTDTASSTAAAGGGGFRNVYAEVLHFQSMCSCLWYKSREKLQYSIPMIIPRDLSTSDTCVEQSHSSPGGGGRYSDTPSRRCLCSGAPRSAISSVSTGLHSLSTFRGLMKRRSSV

With `C#CC1CCCN1C(=O)c1cc(C(=O)N[C@H](CC)c2ccccc2)c2n1CCOC2` (stereo partly drawn) [16fx, 6-(2-Ethynyl-pyrrolidine-1-carbonyl)-3,4-dihydro-1H-pyrrolo[2,1-c][1,4]oxazine-8-carboxylic acid ((R)-1-phenyl-propyl)-amide] the inhibition at 5 µM was 90%.

Same assay, conditions: compound concentration 10 μM (footnote a)

Compound `CC[C@@H](NC(=O)c1cc(C(=O)N(C)[C@@H](C)C(=O)N(C)C)n2c1COCC2)c1ccccc1` [16rk, 3,4-dihydro-1H-pyrrolo[2,1-c][1,4]oxazine-6,8-dicarboxylic acid 6-[((S)-1-dimethylcarbamoyl-ethyl)methyl-amide] 8-[((R)-1-phenyl-propyl)-amide]] has an inhibition at 10 µM of 70%.

Same assay, conditions: human TASK-1 expressed in Xenopus oocytes, room temperature; read-out: IC50 value for TASK-1 inhibition

Point of comparison: `CC[C@@H](NC(=O)c1cc(C(=O)N2CC[C@H](F)C2)n2c1CCCC2)c1ccccc1` [16mk, 3-((S)-3-Fluoro-pyrrolidine-1-carbonyl)-5,6,7,8-tetrahydro-indolizine-1-carboxylic acid ((R)-1-phenyl-propyl)-amide], IC50 550 nM. Against it:
- CC[C@@H](NC(=O)c1cc(C(=O)N2CCCC2)n2c1COCC2)c1ccc(F)cc1Cl [16db, 6-(Pyrrolidine-1-carbonyl)-3,4-dihydro-1H-pyrrolo[2,1-c][1,4]oxazine-8-carboxylic acid [(R)-1-(2-chloro-4-fluoro-phenyl)-propyl]-amide] — 6.1-fold lower, 90 nM
- CCC(NC(=O)c1cc(C(=O)N2CCC[C@@H]2C)n2c1COCC2)c1nccs1 (stereo partly drawn) [16ae, 6-((S)-2-Methyl-pyrrolidine-1-carbonyl)-3,4-dihydro-1H-pyrroIo[2,1-c][1,4]oxazine-8-carboxylic acid (1-thiazol-2-yl-propyl)-amide] — within 1.5-fold, 670 nM
- CC[C@@H](NC(=O)c1cc(C(=O)N2CCC[C@@H]2C)n2c1COCC2)c1ccc(C#N)cc1 [16ak, 6-((S)-2-Methyl-pyrrolidine-1-carbonyl)-3,4-dihydro-1H-pyrrolo[2,1-c][1,4]oxazine-8-carboxylic acid [(R)-1-(4-cyano-phenyl)-propyl]-amide] — 2.4-fold higher, 1300 nM
- CC[C@@H](NC(=O)c1cc(C(=O)NCc2cnccn2)n2c1C(C)OCC2)c1ccccc1 (stereo partly drawn) [16li, 1-Methyl-3,4-dihydro-1H-pyrrolo[2,1-c][1,4]oxazine-6,8-dicarboxylic acid 8-[((R)-1-phenyl-propyl)-amide] 6-[(pyrazin-2-ylmethyl)-amide]] — 1.6-fold higher, 900 nM
- CC[C@@H](NC(=O)c1cc(C(=O)NCC2CC2)n2c1CCCC2)c1ccccc1 [16mf, 5,6,7,8-Tetrahydro-indolizine-1,3-dicarboxylic acid 3-cyclopropylmethyl-amide 1-[((R)-1-phenyl-propyl)-amide]] — 2.1-fold lower, 260 nM
- CC[C@@H](NC(=O)c1cc(C(=O)N[C@H](C)C2CC2)n2c1COCC2)c1ccc(C(F)(F)F)nc1 [16nz, 3,4-Dihydro-1H-pyrrolo[2,1-c][1,4]oxazine-6,8-dicarboxylic acid 6-[((R)-1-cyclopropyl-ethyl)-amide] 8-{[(R)-1-(6-trifluoromethyl-pyridin-3-yl)-propyl]-amide}] — 4-fold higher, 2200 nM
- CC[C@@H](NC(=O)c1cc(C(=O)NC(C)c2cnccn2)n2c1COCC2)c1ccccc1 (single isomer, unassigned) [16ie] — 2.1-fold lower, 260 nM
- CC[C@@H](NC(=O)c1cc(C(=O)N[C@H](CC)c2ccccc2)n2c1COCC2)c1ccc(C(F)(F)F)nc1 [16jy, 3,4-Dihydro-1H-pyrrolo[2,1-c][1,4]oxazine-6,8-dicarboxylic acid 6-[((R)-1-phenyl-propyl)-amide] 8-{[(R)-1-(6-trifluoromethyl-pyridin-3-yl)-propyl]-amide}] — 3.1-fold lower, 180 nM
- CC[C@H](NC(=O)c1cc(C(=O)N[C@H](C)c2ccc(F)cc2)n2c1COCC2)c1ncc(C(F)(F)F)cn1 [16ee, 3,4-Dihydro-1H-pyrrolo[2,1-c][1,4]oxazine-6,8-dicarboxylic acid 6-{[(R)-1-(4-fluoro-phenyl)-ethyl]-amide} 8-{[(S)-1-(5-trifluoromethyl-pyrimidin-2-yl)-propyl]-amide}] — 1.6-fold lower, 350 nM
- CC[C@@H](NC(=O)c1cc(C(=O)NCc2ccccc2S(C)(=O)=O)n2c1COCC2)c1ccccc1 [16gx, 3,4-Dihydro-1H-pyrrolo[2,1-c][1,4]oxazine-6,8-dicarboxylic acid 6-(2-methanesulfonyl-benzylamide) 8-[((R)-1-phenyl-propyl)-amide]] — within 1.5-fold, 430 nM
- CC[C@@H](NC(=O)c1cc(C(=O)N2CCC[C@@H]2C)n2c1COCC2)c1ccc(C(F)(F)F)s1 [16cf, 6-((S)-2-Methyl-pyrrolidine-1-carbonyl)-3,4-dihydro-1H-pyrrolo[2,1-c][1,4]oxazine-8-carboxylic acid [(R)-1-(5-trifluoromethyl-thiophen-2-yl)-propyl]-amide] — 26-fold lower, 21 nM
- CC[C@@H](NC(=O)c1cc(C(=O)N2[C@@H](COC)CC[C@@H]2COC)n2c1COCC2)c1ccccc1 [16ep, 6-((2R,5R)-2,5-Bis-methoxymethyl-pyrrolidine-1-carbonyl)-3,4-dihydro-1H-pyrrolo[2,1-c][1,4]oxazine-8-carboxylic acid ((R)-1-phenyl-propyl)-amide] — within 1.5-fold, 820 nM
- CC[C@@H](NC(=O)c1cc(C(=O)NCc2cc(OC)cc(OC)c2)n2c1COCC2)c1ccccc1 [16gz, 3,4-Dihydro-1H-pyrrolo[2,1-c][1,4]oxazine-6,8-dicarboxylic acid 6-(3,5-dimethoxy-benzylamide) 8-[((R)-1-phenyl-propyl)-amide]] — 4-fold higher, 2200 nM
- CC[C@@H](NC(=O)c1cc(C(=O)N2CCC(c3ccccc3)C2)n2c1CCCC2)c1ccccc1 (stereo partly drawn) [16ms, 3-(3-Phenyl-pyrrolidine-1-carbonyl)-5,6,7,8-tetrahydro-indolizine-1-carboxylic acid ((R)-1-phenyl-propyl)-amide] — the same, 550 nM
- CC[C@@H](NC(=O)c1cc(C(=O)NC(C)c2ncccn2)c2n1CCOC2)c1ccc(F)cc1Cl (stereo partly drawn) [16kp, 3,4-Dihydro-1H-pyrrolo[2,1-c][1,4]oxazine-6,8-dicarboxylic acid 6-{[(R)-1-(2-chloro-4-fluoro-phenyl)-propyl]-amide} 8-[(1-pyrimidin-2-yl-ethyl)-amide]] — 2-fold lower, 280 nM
- CC[C@@H](NC(=O)c1cc(C(=O)N[C@H](C)c2ccc(F)cc2)n2c1COCC2)c1ncc(C(F)(F)F)cn1 [16ed, 3,4-Dihydro-1H-pyrrolo[2,1-c][1,4]oxazine-6,8-dicarboxylic acid 6-{[(R)-1-(4-fluoro-phenyl)-ethyl]-amide} 8-{[(R)-1-(5-trifluoromethyl-pyrimidin-2-yl)-propyl]-amide}] — 1.8-fold lower, 300 nM
- CC[C@@H](NC(=O)c1cc(C(=O)N[C@H](C)c2ccc(F)cc2)c2n1CCOC2)c1ncccn1 [16nv, 3,4-Dihydro-1H-pyrrolo[2,1-c][1,4]oxazine-6,8-dicarboxylic acid 8-{[(R)-1-(4-fluoro-phenyl)-ethyl]-amide} 6-[((R)-1-pyrimidin-2-yl-propyl)-amide]] — 3.2-fold lower, 170 nM
- CC[C@@H](NC(=O)c1cc(C(=O)N2CCC[C@@H]2C)n2c1COCC2)c1cnc(C#N)c(Cl)c1 [16rf, 6-((S)-2-Methyl-pyrrolidine-1-carbonyl)-3,4-dihydro-1H-pyrrolo[2,1-c][1,4]oxazine-8-carboxylic acid [(R)-1-(5-chloro-6-cyano-pyridin-3-yl)-propyl]-amide] — 1.8-fold higher, 1000 nM
- CC[C@@H](NC(=O)c1cc(C(=O)N[C@H](C)c2cnccn2)c2n1CCOC2)c1ccc(F)cc1Cl [16kn, 3,4-Dihydro-1H-pyrrolo[2,1-c][1,4]oxazine-6,8-dicarboxylic acid 6-{[(R)-1-(2-chloro-4-fluoro-phenyl)-propyl]-amide} 8-[((R)-1-pyrazin-2-yl-ethyl)-amide]] — 4.2-fold lower, 130 nM
- CC[C@@H]1CCCN1C(=O)c1cc(C(=O)N[C@H](CC)c2ccccc2)c2n1CCOC2 (racemic) [16fd, 6-((R)-2-Ethyl-pyrrolidine-1-carbonyl)-3,4-dihydro-1H-pyrrolo[2,1-c][1,4]oxazine-8-carboxylic acid ((R)-1-phenyl-propyl)-amide] — within 1.5-fold, 730 nM
- 6-((S)-2-Methyl-pyrrolidine-1-carbonyl)-3(4-dihydro-1H-pyrrolo[2,1-c][1,4]oxazine-8-carboxylic acid [(R)-1-(2,2-difluoro-benzo[1,3]dioxol-5-yl)-propyl]-amide [16bz] — 2.8-fold lower, 200 nM
- CC(C)[C@@H](NC(=O)c1cc(C(=O)N2CCCC2)c2n1CCOC2)c1ccc(F)cc1 [16lm, 8-(Pyrrolidine-1-carbonyl)-3,4-dihydro-1H-pyrrolo[2,1-c][1,4]oxazine-6-carboxylic acid [(R)-1-(4-fluoro-phenyl)-2-methyl-propyl]-amide] — 2-fold lower, 270 nM
- CC[C@@H](NC(=O)c1cc(C(=O)N2CCC[C@@H]2C)n2c1COCC2)c1ccc(F)c(C(F)(F)F)c1 [16bo, 6-((S)-2-Methyl-pyrrolidine-1-carbonyl)-3,4-dihydro-1H-pyrrolo[2,1-c][1,4]oxazine-8-carboxylic acid [(R)-1-(4-fluoro-3-trifluoromethyl-phenyl)-propyl]-amide] — 3.4-fold lower, 160 nM
- C[C@H]1CCCN1C(=O)c1cc(C(=O)N[C@@H]2CCc3nc(C(F)(F)F)ccc32)c2n1CCOC2 (racemic) [16cv, 6-((S)-2-Methyl-pyrrolidine-1-carbonyl)-3,4-dihydro-1H-pyrrolo[2,1-c][1,4]oxazine-8-carboxylic acid ((R)-2-trifluoromethyl-6,7-dihydro-5H-[1]pyrindin-5-yl)-amide] — 1.6-fold higher, 900 nM
- C[C@H]1CCCN1C(=O)c1cc(C(=O)N[C@H]2CCc3nc(C(F)(F)F)ccc32)c2n1CCOC2 (racemic) [16cu, 6-((S)-2-Methyl-pyrrolidine-1-carbonyl)-3,4-dihydro-1H-pyrrolo[2,1-c][1,4]oxazine-8-carboxylic acid ((S)-2-trifluoromethyl-6,7-dihydro-5H-[1]pyrindin-5-yl)-amide] — 16-fold higher, 9000 nM
- CC[C@@H](NC(=O)c1cc(C(=O)N[C@@H](C)c2ccc(F)cc2)n2c1COCC2)c1ccccc1 [16ht, 3,4-Dihydro-1H-pyrrolo[2,1-c][1,4]oxazine-6,8-dicarboxylic acid 6-{[(S)-1-(4-fluoro-phenyl)-ethyl]-amide} 8-[((R)-1-phenyl-propyl)-amide]] — 7.9-fold lower, 70 nM
